Laboratory results from patent US20120040009A1, “PARTICULATE PHARMACEUTICAL COMPOSITION WITH AN OPIOID AND AN OPIOID ANTAGONIST” (priority 2009, published 2012).

Conditions: non-opioid-dependent patients; intravenous administration of 200 mg morphine

## C=CCN1CC[C@]23c4c5ccc(O)c4O[C@H]2C(=O)CC[C@@]3(O)[C@H]1C5 [naloxone, (5R,9R,13S,14S)-17-allyl-3,14-dihydroxy-4,5-epoxymorphinan-6-on]
  naloxone sufficient to trigger discrete withdrawal symptoms: 0.4 mg
